The text below walks through data of patent publication US20060166182A1, “Tissue and organ preservation, protection and resuscitation” (The Board of Trustees of the University of Ilinois a body …, priority 2002, published 2006).

SMILES strings stand for the structures.

In this data set the test system is dogs. Kind of data set: Myocardial tissue oxygen pressure and pH during cardiac (ventricular) fibrillation in bupivacaine and sham treated dogs. It is filed as in vivo, dog. As to the method:
Non-purpose bred male hounds (22-26 kg) were used. Dogs were fasted overnight. On the day of the example, the dog was anesthetized with 5 mg/kg propofol, intubated and ventilated with 1.5% isoflurane and inspired oxygen concentration of 30%. Catheters were inserted into the femoral artery for blood pressure recording and blood gas sampling, and the femoral vein for fluid and drug administration. Sterile saline was infused intravenously (4 ml·kg^−1·hr^−1) for fluid maintenance.
An incision was made along the left 5th intercostal space and the left ventricle exposed. A Paratrend tissue probe (Codman Inc, Newark, N.J.) was calibrated on the day of the study using precision gases. The probe was 0.5 mm in diameter and 2 sensors measuring myocardial tissue oxygen pressure (PmO2) and myocardial pH (pHm) were contained in the final 2 cm. The void surrounding the pHm sensor was filled with acrylamide gel containing phenol red. Changes in hydrogen ion concentration produce color changes in phenol red, which can be detected by the pH fiber optic sensor. A fluorescence method was used to measure the partial pressure of dissolved or gaseous oxygen for the fiber optic PmO2 sensor. The 0%-90% response times for the PmO2 and pHm sensors were 78 s and 70 s, respectively. The probe was inserted into the myocardium in the region between the first and second diagonal branch of the left anterior descending coronary artery, parallel to the surface of the heart 6 mm below the surface using an 18 gauge angiocatheter as an introducer. Mechanical ventilation was adjusted to maintain arterial pCO2 at 35±2 mmHg and inspired oxygen concentration was maintained at 30%, with the balance nitrogen. Body temperature was maintained at 38° C. using a warming pad.
After equilibration of the myocardial tissue probe for 45 minutes, baseline measures of mean arterial pressure (MAP), heart rate, pmO2 and pHm were recorded and an arterial blood gas sample was measured. Each dog received an intravenous infusion of 10 mg/kg bupivacaine over 10 seconds. […] In a preliminary study (early lipid, EL), intervention at the onset of circulatory collapse included an intravenous infusion of either soy lipid emulsion (Intralipid 20%, Fresenius Kabi Clayton, Clayton, N.C.) n=3, or saline, n=3, each administered as a 4 ml/kg bolus (over 2 minutes), followed by a continuous infusion of 0.5 ml·kg^−1·min^−1 for 10 minutes. The protocol was subsequently modified to better simulate a clinical setting, where the start of the infusion might be delayed by several minutes. In this protocol (delayed lipid, DL), internal cardiac massage alone was continued for 10 minutes, then infusion of either the lipid emulsion (n=6) or saline (n=6) was begun as described above. If sinus rhythm returned, internal cardiac massage was continued until MAP reached 30 mmHg and recovery measures of pmO2 and pHm were recorded when blood pressure returned to within 10% of baseline levels. Dogs were killed at the end of the study using a euthanasia solution. The investigators were not blinded to treatment arm.
Data are reported for the DL experiments as mean±SD. pmO2 and pHm were compared between baseline and subsequent treatments within each group using repeated measures analysis of variance with Tukey's tests for post-hoc comparisons. Differences between groups for each treatment were compared by Student's t-test. The proportion of animals surviving bupivacaine challenge in each group was compared in the DL experiment using a z-test. Significance was taken as p<0.05.
There were no significant differences between groups. […] Tissue pH decreased a similar amount in half the time in sham treated dogs, and the rate of pH decrease was greater in these dogs compared to bupivacaine treated dogs.
In four dogs per group, PmO2 and pHm were allowed to decrease for 15 minutes of cardiac fibrillation at the end of the study.

Setting [1] is: dogs made hypotensive by treatment with bupivacaine.
Setting [2] is: during cardiac fibrillation, mean ± SD.
The mark [3] stands for this setting: during cardiac fibrillation, mean ± SD, P < 0.05 compared to sham.

As for `CCCCN1CCCCC1C(=O)Nc1c(C)cccc1C` (stereo not drawn) [Bupivacaine, bupivacaine], the “rate of decrease in pHm, increase in PmCO2 and decrease in PmO2 compared to sham” value (15 minutes of cardiac fibrillation at the end of the study, four dogs per group, FIG. 1) is “rate of decrease in pHm and increase in PmCO2 was faster in sham treated dogs, but the rate of decrease in PmO2 was slower compared to bupivacaine treated dogs”. The “acidosis in myocardial tissue” value (dogs made hypotensive by bupivacaine, prolonged hypotension, hypoperfusion and cardiac tissue hypoxia) was “do not develop the expected acidosis in myocardial tissue”. Under setting [1], the “cardiac tissue pO2 (intramyocardial probe)” value is on record as “undetectable” and the “systemic blood pressure (BP) after bupivacaine” value was less than 40 mmHg. Under setting [2], the “PH decrease (myocardial tissue)” value was 0.31 ± 0.08, the PmO2 decrease was found to be 52 ± 16 mmHg, the “Rate of decrease (PmO2)” value is on record as 22 ± 5 mmHg/min and the “Time (of PmO2 decrease)” value stood at 2.5 ± 0.9 min. Under setting [3], the “Rate of Decrease (myocardial pH)” value turned out to be 0.02 ± 0.01 min − 1 and the “Time (of pH decrease)” value is given as 13.8 ± 5.1 min. Further, where the note is “ventricular fibrillation, Table 2 experiment”, the “rate of decrease in PmO2 compared to sham treated dogs” value is “higher rate in bupivacaine treated compared to sham treated dogs, but this difference was not significant”. Under “ventricular fibrillation, versus sham”, the “factor by which the rate of decrease in pH during fibrillation was reduced” value is listed as “four”.
